The source made the active and inactive calls. The rule behind the calls is not given here.

The target of assay [1] is T1, 5-hydroxytryptamine receptor 3A (Homo sapiens, UniProt P46098).
T1 sequence (P46098 whole entry): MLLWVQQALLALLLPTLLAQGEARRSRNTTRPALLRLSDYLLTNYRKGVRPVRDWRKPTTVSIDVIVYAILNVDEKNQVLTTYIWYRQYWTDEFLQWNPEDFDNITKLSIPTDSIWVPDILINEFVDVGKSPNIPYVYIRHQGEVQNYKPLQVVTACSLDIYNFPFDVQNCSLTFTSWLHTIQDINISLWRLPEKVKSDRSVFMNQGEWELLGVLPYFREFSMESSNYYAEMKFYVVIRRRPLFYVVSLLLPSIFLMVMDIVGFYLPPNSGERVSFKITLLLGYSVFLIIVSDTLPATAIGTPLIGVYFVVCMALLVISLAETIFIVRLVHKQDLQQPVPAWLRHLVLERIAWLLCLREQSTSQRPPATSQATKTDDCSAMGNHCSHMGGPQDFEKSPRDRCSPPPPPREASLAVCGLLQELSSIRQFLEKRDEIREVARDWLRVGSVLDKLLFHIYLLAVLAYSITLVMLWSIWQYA
As to the kind of experiment: Binding affinity to human 5HT3A receptor in HEK293 cells assessed as cell labeling by confocal microscopy. It counts as cell-based.

For assay [2], the target named is T2, 5-hydroxytryptamine receptor 3A (Homo sapiens) (UniProt P46098).
T2 sequence (whole entry): T1 sequence (P46098 whole entry)
As to the kind of experiment: Binding affinity to human 5HT3A receptor in HEK293 cells assessed as cell labeling by confocal microscopy in presence of quipazine. It counts as cell-based.

Regarding `Cc1cc(C)n2c1C=C1C=CC(NCC(=O)NCCCn3nc(C(=O)N[C@H]4C[C@H]5CCC[C@@H](C4)N5C)c4ccccc43)=[N+]1[B-]2(F)F`, the Ki in assay [1] was determined as 2.8 nM. For the same molecule, the result in assay [2] was Active.

These data come from ChEMBL document CHEMBL1157568, “Toward biophysical probes for the 5-HT3 receptor: structure-activity relationship study of granisetron derivatives” (J Med Chem, 2010).
